In US20250186541A1, “DLL3 TARGETING PEPTIDES AND CONSTRUCTS THEREOF” (MARIANA ONCOLOGY INC., priority 2023, published 2025):
Numbered stars: 1 amine (or outer) side, 2 acyl side, 3 side chain; on linkers, the order of the positions; unused ones are H or OH. Bridge positions count the residues as written; N and C are the ends. Square brackets hold non-standard residues; d marks the D form. Peptide text beside a SMILES is read from it. * marks the point of attachment. Ala(piperidin-4-yl) = O=C([C@H](CC1CCN([*:3])CC1)N[*:1])[*:2]; DOTA = O=C(O)CN1CCN(CC(=O)O)CCN(CC(=O)*)CCN(CC(=O)O)CC1; Trp(7-Me) = Cc1cccc2c(C[C@H](N)C(=O)O)c[nH]c12; 1Nal = N[C@@H](Cc1cccc2ccccc12)C(=O)O; 2Nal = N[C@@H](Cc1ccc2ccccc2c1)C(=O)O; NMetBuAla = CN[C@@H](CC(C)(C)C)C(=O)O; tBuAla = CC(C)(C)C[C@H](N)C(=O)O; NMeD = CN[C@@H](CC(=O)O)C(=O)O; AllylGly = C=CC[C@H](N)C(=O)O; Chg = N[C@H](C(=O)O)C1CCCCC1; Pen = CC(C)(S)[C@H](N)C(=O)O; αMeP = C[C@@]1(C(=O)O)CCCN1; NMeS = CN[C@@H](CO)C(=O)O; αMeS = C[C@](N)(CO)C(=O)O

What follows are molecules tested against T1, human DLL3 (Homo sapiens, UniProt Q9NYJ7) (assay: Affinity determination by Surface Plasmon Resonance (SPR), Biacore, 1:1 binding model). Settings: biotinylated human DLL3 on streptavidin chip, 25° C.; NB = nonbinding.
T1 construct: biotin (biotinylated)
T1 sequence (Q9NYJ7 27-618): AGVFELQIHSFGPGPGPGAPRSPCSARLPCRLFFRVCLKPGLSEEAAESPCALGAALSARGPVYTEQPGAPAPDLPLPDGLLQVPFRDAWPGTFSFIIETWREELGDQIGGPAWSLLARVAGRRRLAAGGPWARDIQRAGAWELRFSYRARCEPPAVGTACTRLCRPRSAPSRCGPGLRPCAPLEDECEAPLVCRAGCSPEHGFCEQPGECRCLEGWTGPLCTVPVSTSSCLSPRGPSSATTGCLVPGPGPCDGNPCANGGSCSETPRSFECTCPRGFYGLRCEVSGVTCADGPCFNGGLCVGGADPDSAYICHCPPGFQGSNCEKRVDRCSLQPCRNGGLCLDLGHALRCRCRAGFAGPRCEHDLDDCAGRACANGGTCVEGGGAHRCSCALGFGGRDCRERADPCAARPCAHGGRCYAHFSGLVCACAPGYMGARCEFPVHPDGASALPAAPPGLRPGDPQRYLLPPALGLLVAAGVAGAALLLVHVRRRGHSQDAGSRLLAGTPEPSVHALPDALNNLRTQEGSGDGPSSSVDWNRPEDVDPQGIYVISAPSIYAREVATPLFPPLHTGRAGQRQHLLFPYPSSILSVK
How it was run: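 SPR with biotinylated human DLL3 captured on a streptavidin chip, with a reference surface subtracted. Samples were injected at several concentrations at 100 μL/min in phosphate buffer with 137 mM NaCl, 2.7 mM KCl, 0.05% P20 and 2% DMSO. Kinetic and affinity constants came from a 1:1 binding fit.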

Compared with CC(=O)N[C@H](C)C(=O)N[C@@H](CO)C(=O)N[C@@H](CC(=O)O)C(=O)N[C@H]1C/C=C/C[C@@H](C(=O)N2CCC[C@@]2(C)C(=O)N[C@@H](Cc2ccccc2)C(=O)N[C@@H](CC(=O)O)C(=O)N[C@H](CCCCNC(=O)CN2CCN(CC(=O)O)CCN(CC(=O)O)CCN(CC(=O)O)CC2)C(N)=O)NC(=O)[C@H](CC(N)=O)NC(=O)[C@H](Cc2ccc3ccccc3c2)NC(=O)[C@H](CCC(N)=O)NC(=O)[C@H](CC(C)(C)C)NC(=O)[C@H](Cc2cccc3ccccc23)NC1=O [compound 161, Ac-(D-Ala)-S-D-AllyG(4)-(1Nal)-(t-Bu-Ala)-Q-(2Nal)-N-AllyG(4)-(aMe-P)-F -D-D-Lys(DOTA)-CONH2] (Ac-[dA]SD[AllylGly][1Nal][tBuAla]Q[2Nal]N[AllylGly][αMeP]FD[dK](DOTA)-NH2; staple (E) 4-10), CC(=O)N[C@H](C)C(=O)N[C@@H](CO)C(=O)N[C@@H](CC(=O)O)C(=O)N[C@H]1CSSC[C@@H](C(=O)N2CCC[C@@]2(C)C(=O)N[C@@H](Cc2ccccc2)C(=O)N[C@@H](CC(=O)O)C(=O)N[C@H](CCCCNC(=O)CN2CCN(CC(=O)O)CCN(CC(=O)O)CCN(CC(=O)O)CC2)C(N)=O)NC(=O)[C@H](CC(N)=O)NC(=O)[C@H](Cc2ccc3ccccc3c2)NC(=O)[C@H](CCC(N)=O)NC(=O)[C@H](CC(C)(C)C)NC(=O)[C@H](Cc2cccc3ccccc23)NC1=O [compound 172, Ac-(D-Ala)-S-D-C(3)-(1Nal)-(t-Bu-Ala)-Q-(2Nal)-N-C(3)-(aMe-P)-F -D-[D-Lys(DOTA)]-NH2] (Ac-[dA]SDC[1Nal][tBuAla]Q[2Nal]NC[αMeP]FD[dK](DOTA)-NH2; disulfide 4-10) is 6.5-fold lower in Kd: 0.24 nM for the first, 0.037 nM for the second. The second binds more tightly here.

Going from CC(=O)N[C@H](C)C(=O)N[C@@H](CO)C(=O)N[C@@H](CC(=O)O)C(=O)N[C@@H]1C(=O)N[C@@H](Cc2cccc3ccccc23)C(=O)N[C@@H](CC(C)(C)C)C(=O)N[C@@H](CCC(N)=O)C(=O)N[C@@H](Cc2ccc3ccccc3c2)C(=O)N[C@@H](CC(N)=O)C(=O)N[C@H](C(=O)N2CCC[C@@]2(C)C(=O)N[C@@H](Cc2ccccc2)C(=O)N[C@@H](CC(=O)O)C(=O)N[C@H](CCCCNC(=O)CN2CCN(CC(=O)O)CCN(CC(=O)O)CCN(CC(=O)O)CC2)C(N)=O)CSSC1(C)C [compound 162, Ac-(D-Ala)-S-D-Pen(3)-(1Nal)-(t-Bu-Ala)-Q-(2Nal)-N-C(3)-(aMe-P)-F -D-D-Lys(DOTA)-CONH2] (Ac-[dA]SD[Pen][1Nal][tBuAla]Q[2Nal]NC[αMeP]FD[dK](DOTA)-NH2; disulfide 4-10) to CC(=O)N[C@H](C)C(=O)N[C@@H](CO)C(=O)N[C@@H](CC(=O)O)C(=O)N[C@H]1CSSC[C@@H](C(=O)N2CCC[C@@]2(C)C(=O)N[C@@H](Cc2ccccc2)C(=O)N[C@@H](CC(=O)O)C(=O)N[C@H](CCCCNC(=O)CN2CCN(CC(=O)O)CCN(CC(=O)O)CCN(CC(=O)O)CC2)C(N)=O)NC(=O)[C@H](CC(N)=O)NC(=O)[C@H](Cc2ccc3ccccc3c2)NC(=O)[C@H](C)NC(=O)[C@H](CC(C)(C)C)NC(=O)[C@H](Cc2cccc3ccccc23)NC1=O [compound 165, Ac-(D-Ala)-S-D-C(3)-(1Nal)-(t-Bu-Ala)-Ala-(2Nal)-N-C(3)-(aMe-P)-F-D-[D-Lys(DOTA)]-NH2] (Ac-[dA]SDC[1Nal][tBuAla]A[2Nal]NC[αMeP]FD[dK](DOTA)-NH2; disulfide 4-10), the Kd falls from 224 nM to 0.094 nM (2400-fold). The second binds more tightly here.

Going from CC(=O)N[C@H](C)C(=O)N[C@@](C)(CO)C(=O)N[C@@H](CC(=O)O)C(=O)N[C@H]1CSSC[C@@H](C(=O)N2CCC[C@@]2(C)C(=O)N[C@@H](Cc2ccccc2)C(=O)N[C@@H](CC(=O)O)C(=O)N[C@H](CCCCNC(=O)CN2CCN(CC(=O)O)CCN(CC(=O)O)CCN(CC(=O)O)CC2)C(N)=O)NC(=O)[C@H](CC(N)=O)NC(=O)[C@H](Cc2ccc3ccccc3c2)NC(=O)[C@H](CCC(N)=O)NC(=O)[C@H](CC(C)(C)C)NC(=O)[C@H](Cc2cccc3ccccc23)NC1=O [compound 167, Ac-(D-Ala)-(aMe-Ser)-D-C(3)-(1Nal)-(t-Bu-Ala)-Q-(2Nal)-N-C(3)-(aMe-P)-F-D-[D-Lys(DOTA)]-NH2] (Ac-[dA][αMeS]DC[1Nal][tBuAla]Q[2Nal]NC[αMeP]FD[dK](DOTA)-NH2; disulfide 4-10) to CC(=O)N[C@H](C)C(=O)N(C)[C@@H](CO)C(=O)N[C@@H](CC(=O)O)C(=O)N[C@H]1CSSC[C@@H](C(=O)N2CCC[C@@]2(C)C(=O)N[C@@H](Cc2ccccc2)C(=O)N[C@@H](CC(=O)O)C(=O)N[C@H](CCCCNC(=O)CN2CCN(CC(=O)O)CCN(CC(=O)O)CCN(CC(=O)O)CC2)C(N)=O)NC(=O)[C@H](CC(N)=O)NC(=O)[C@H](Cc2ccc3ccccc3c2)NC(=O)[C@H](CCC(N)=O)NC(=O)[C@H](CC(C)(C)C)NC(=O)[C@H](Cc2cccc3ccccc23)NC1=O [compound 169, Ac-(D-Ala)-(NMe-Ser)-D-C(3)-(1Nal)-(t-Bu-Ala)-Q-(2Nal)-N-C(3)-(aMe-P)-F-D-[D-Lys(DOTA)]-NH2] (Ac-[dA][NMeS]DC[1Nal][tBuAla]Q[2Nal]NC[αMeP]FD[dK](DOTA)-NH2; disulfide 4-10), the Kd falls from 0.24 nM to 0.057 nM (4.2-fold). The second binds more tightly here.

First: CC(=O)N[C@H](C)C(=O)N[C@@H](CO)C(=O)N(C)[C@@H](CC(=O)O)C(=O)N[C@H]1CSSC[C@@H](C(=O)N2CCC[C@@]2(C)C(=O)N[C@@H](Cc2ccccc2)C(=O)N[C@@H](CC(=O)O)C(=O)N[C@H](CCCCNC(=O)CN2CCN(CC(=O)O)CCN(CC(=O)O)CCN(CC(=O)O)CC2)C(N)=O)NC(=O)[C@H](CC(N)=O)NC(=O)[C@H](Cc2ccc3ccccc3c2)NC(=O)[C@H](CCC(N)=O)NC(=O)[C@H](CC(C)(C)C)NC(=O)[C@H](Cc2cccc3ccccc23)NC1=O [compound 170, Ac-(D-Ala)-S-(NMe-Asp)-C(3)-(1Nal)-(t-Bu-Ala)-Q-(2Nal)-N-C(3)-(aMe-P)-F-D-[D-Lys(DOTA)]-NH2] (Ac-[dA]S[NMeD]C[1Nal][tBuAla]Q[2Nal]NC[αMeP]FD[dK](DOTA)-NH2; disulfide 4-10)
Second: CC(=O)N[C@H](C)C(=O)N[C@@H](CO)C(=O)N[C@@H](CC(=O)O)C(=O)N[C@H]1CSSC[C@@H](C(=O)N2CCC[C@@]2(C)C(=O)N[C@@H](Cc2ccccc2)C(=O)N[C@@H](CC(=O)O)C(=O)N[C@H](CCCCNC(=O)CN2CCN(CC(=O)O)CCN(CC(=O)O)CCN(CC(=O)O)CC2)C(N)=O)NC(=O)[C@H](CC(N)=O)NC(=O)[C@H](Cc2ccc3ccccc3c2)NC(=O)[C@H](CCC(N)=O)NC(=O)[C@H](CC(C)(C)C)N(C)C(=O)[C@H](Cc2cccc3ccccc23)NC1=O [compound 171, Ac-(D-Ala)-S-D-C(3)-(1Nal)-(NMe-Tba)-Q-(2Nal)-N-C(3)-(aMe-P)-F -D-[D-Lys(DOTA)]-NH2] (Ac-[dA]SDC[1Nal][NMetBuAla]Q[2Nal]NC[αMeP]FD[dK](DOTA)-NH2; disulfide 4-10)
The Kd of the first is 3.2-fold lower: 0.38 nM for the first, 1.21 nM for the second. The first binds more tightly here.

Compared with CC(=O)N[C@H](C)C(=O)N[C@@H](CO)C(=O)N[C@@H](CC(=O)O)C(=O)N[C@H]1CSSC[C@@H](C(=O)N2CCC[C@@]2(C)C(=O)N[C@@H](Cc2ccccc2)C(=O)N[C@@H](CC(=O)O)C(=O)N[C@H](CCCCNC(=O)CN2CCN(CC(=O)O)CCN(CC(=O)O)CCN(CC(=O)O)CC2)C(N)=O)NC(=O)[C@H](CC(N)=O)NC(=O)[C@H](Cc2ccc3ccccc3c2)NC(=O)[C@H](CCC(N)=O)NC(=O)[C@H](CC(C)(C)C)NC(=O)[C@H](Cc2c[nH]c3c(C)cccc23)NC1=O [compound 173, Ac-(D-Ala)-S-D-C(3)-(7Me-W)-(t-Bu-Ala)-Q-(2Nal)-N-C(3)-(aMe-P)-F -D-[D-Lys(DOTA)]-NH2] (Ac-[dA]SDC[Trp(7-Me)][tBuAla]Q[2Nal]NC[αMeP]FD[dK](DOTA)-NH2; disulfide 4-10), CC(=O)N[C@H](C(=O)N[C@@H](CO)C(=O)N[C@@H](CC(=O)O)C(=O)N[C@H]1CSSC[C@@H](C(=O)N2CCC[C@@]2(C)C(=O)N[C@@H](Cc2ccccc2)C(=O)N[C@@H](CC(=O)O)C(N)=O)NC(=O)[C@H](CC(N)=O)NC(=O)[C@H](Cc2ccc3ccccc3c2)NC(=O)[C@H](CCCCNC(=O)CN2CCN(CC(=O)O)CCN(CC(=O)O)CCN(CC(=O)O)CC2)NC(=O)[C@H](CC(C)(C)C)NC(=O)[C@H](Cc2cccc3ccccc23)NC1=O)C1CCCCC1 [compound 174, Ac-(Chg)-S-D-C(3)-(1Nal)-(t-Bu-Ala)-[L-Lys(DOTA)]-(2Nal)-N-C(3)-(aMe-P)-F -D-CONH2] (Ac-[Chg]SDC[1Nal][tBuAla]K(DOTA)[2Nal]NC[αMeP]FD-NH2; disulfide 4-10) is 2.1-fold lower in Kd: 0.48 nM for the first, 0.23 nM for the second.

Work on C[C@@H](NC(=O)CN1CCN(CC(=O)O)CCN(CC(=O)O)CCN(CC(=O)O)CC1)C(=O)N[C@@H](CO)C(=O)N[C@@H](CC(=O)O)C(=O)N[C@H]1CSSC[C@@H](C(=O)N2CCC[C@@]2(C)C(=O)N[C@@H](Cc2ccccc2)C(=O)N[C@@H](CC(=O)O)C(N)=O)NC(=O)[C@H](CC(N)=O)NC(=O)[C@H](Cc2ccc3ccccc3c2)NC(=O)[C@H](CC2CCNCC2)NC(=O)[C@H](CC(C)(C)C)NC(=O)[C@H](Cc2cccc3ccccc23)NC1=O [compound 175, DOTA-(D-Ala)-S-D-C(3)-(1Nal)-(t-Bu-Ala)-[3-(4-piperidinyl)-Ala]-(2Nal)-N-C(3)-(aMe-P)-F -D-CONH2] ({DOTA}-[dA]SDC[1Nal][tBuAla][Ala(piperidin-4-yl)][2Nal]NC[αMeP]FD-NH2; disulfide 4-10) yielded a Kd of 0.067 nM.
